The target in this test is T1, human recombinant COX2 (hCOX2) (UniProt P35354).
T1 sequence (P35354 1-604): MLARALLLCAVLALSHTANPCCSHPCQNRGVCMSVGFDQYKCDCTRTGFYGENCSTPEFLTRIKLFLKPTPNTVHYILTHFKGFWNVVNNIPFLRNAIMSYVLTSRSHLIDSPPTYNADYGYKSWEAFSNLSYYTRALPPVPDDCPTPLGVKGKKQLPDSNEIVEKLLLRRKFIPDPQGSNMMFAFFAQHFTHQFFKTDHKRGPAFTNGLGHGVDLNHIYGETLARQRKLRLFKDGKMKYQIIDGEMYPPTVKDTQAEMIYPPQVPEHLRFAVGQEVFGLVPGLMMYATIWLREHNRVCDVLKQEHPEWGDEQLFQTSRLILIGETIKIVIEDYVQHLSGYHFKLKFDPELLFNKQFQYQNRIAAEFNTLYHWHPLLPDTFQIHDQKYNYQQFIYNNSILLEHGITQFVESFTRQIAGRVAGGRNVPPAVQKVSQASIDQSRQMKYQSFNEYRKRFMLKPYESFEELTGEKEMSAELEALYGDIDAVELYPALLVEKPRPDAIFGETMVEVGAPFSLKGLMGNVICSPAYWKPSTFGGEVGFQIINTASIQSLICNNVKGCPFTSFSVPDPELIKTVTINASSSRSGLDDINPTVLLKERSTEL
In words: LCMS-based COX2 enzymatic inhibition assay (PGE2 quantification). It is filed as biochemical. Set-up: COX2 2 minutes pge2/pge2d4 area ratio Avg; other: 2 minutes; readout pge2/pge2d4 area ratio; average; COX2 2 minutes pge2/pge2d4 area ratio Avg; LLE; average LLE; COX2 2 minutes pge2 area (counts) Avg; readout pge2 area (counts); other: 2 min; "ovine COX2 (oCOX2), human recombinant COX2 (hCOX2)". The note with it: for COX2 2 minutes pge2/pge2d4 area ratio Avg. LLE / COX2 2 minutes pge2 area (counts) Avg. LLE / COX2 10 minutes pge2 area (counts) Avg. LLE: average LLE; for IC50: average. How it is done:
We have adapted a previously reported cyclooxygenase enzymatic assay utilizing LCMS quantification of PGE2 as the product of COX-1 and COX2 catalyzed conversion of arachidonic acid to evaluate the binding properties of newly synthesized ligands [Cao, 2011]. These optimized and miniaturized (384-well plates) LCMS-based COX-1 and COX2 enzymatic assays enabled us to quickly evaluate newly synthesized ligands for COX2 binding affinity and selectivity vs COX-1. Using a shorter ligand-enzyme incubation time in the LCMS assay (2 minutes vs 10 minutes) also permitted us to prioritize ligands with faster binding kinetics. Considering the relatively slow on-rate kinetics of known coxibs, due to their 3-step binding mechanism [Marnett, 2009], we believe that optimizing this critical parameter will be key to the successful development of a COX2 PET tracer. Using these enzymatic assays, we have evaluated>200 newly synthesized ligands against COX2 and >20 ligands against COX-1. Another critical property necessary for a good PET radiotracer is to have low non-specific binding (NSB) to increase the free fraction and maximize the signal to noise ratio. This property can be evaluated using in-vitro protein binding assays, and we have now evaluated>50 newly synthesized ligands in mouse, rat and human plasma protein binding (PPB) assays as well as >15 ligands in a mouse brain protein binding (BPB) assay.
Ovine COX-1 (oCOX-1), ovine COX2 (oCOX2), human recombinant COX2 (hCOX2), arachidonic acid, PGE2, d4-PGD2, and […] (labeled with deuterium atoms at positions 3 and 4) were purchased from Cayman Chemicals (Ann Arbor, Mich.). The cofactors (−)epinephrine and hematin, and the COX inhibitors indomethacin, resveratrol and diclofenac were purchased from Sigma-Aldrich (St. Louis, Mo.). Celecoxib was purchased from 3B PharmaChem International (Wuhan, China). All organic solvents were HPLC grade or better and were purchased from Thermo Fisher (Hanover Park, Ill.). Formic acid was purchased from EMD Chemicals (San Diego, Calif.). Purified water was prepared by using a Millipore Milli-Q purification system (Millipore, Billerica, Mass.). All other chemicals and solvents were ACS reagent grade, unless stated otherwise.
In an Eppendorf tube, 146 μL of 100 mM Tris.HCl (pH 8.0) buffer, 2 μL of 100 μM hematin (co-factor) and 10 μL of 40 mM L-epinephrine (co-factor) were mixed at room temperature. Next, 20 μL of Tris.HCl (pH 8.0) buffer containing 0.2 μg COX2 or 0.1 μg COX-1 (approximately 1 unit of enzyme; 1 unit COX utilizes 1 nmol 02/mg/min at 37° C.) was added, and the solution was incubated at room temperature for 2 min. A 2 μL aliquot of the COX inhibitor in DMSO was added to the enzyme solution and preincubated at 37° C. for 10 min. Negative controls were identical except that 2 μL aliquots of DMSO without inhibitor were used instead.
Each COX reaction was initiated by adding 20 μL of arachidonic acid in Tris.HCl (pH 8.0) buffer to give a final concentration of 5 μM; and the reaction was terminated after 2 min by adding 20 μL of 2.0 M HCl. The surrogate standards d4-PGE2 and d4-PGD2 (10 μL aliquot of 50 ng/mL solution in methanol) were added to correct for errors or degradation during sample handling and for variation in injection volume or instrument response during LC-MS-MS. After 30 min, PGE2, PGD2 and their surrogate standards were extracted from each incubation mixture using 800 μL hexane/ethyl acetate (50:50, v/v). The organic phase was removed, evaporated to dryness, and reconstituted in 100 μL methanol/water (50:50, v/v) for analysis using LC-MS-MS.
The concentration of PGE2 in each sample was measured using LC-MS-MS, and the percent of COX inhibition by each test solution was determined by comparing the amount of PGE2 produced in the experiment with that produced in the negative control incubation. The formation of PGD2 was measured for quality control purposes, since the levels of PGD2 should be proportional to those of PGE2. […]

[1] abbreviates: 2 minutes, readout pge2/pge2d4 area ratio.
Where [2] appears, read: 2 minutes, readout pge2/pge2d4 area ratio, read-out: COX2 2 minutes pge2/pge2d4 area ratio Avg. IC50.
The mark [3] stands for this setting: 2 minutes, readout pge2 area (counts).
[4] abbreviates: 2 minutes, readout pge2 area (counts), read-out: COX2 2 minutes pge2 area (counts) Avg. IC50.
[5] abbreviates: 10 minutes, readout pge2 area (counts), read-out: COX2 10 minutes pge2 area (counts) Avg. IC50.
Where [6] appears, read: read-out: COX2 2 minutes pge2/pge2d4 area ratio Avg. IC50 (microM), 2 minutes, readout pge2/pge2d4 area ratio.
Where [7] appears, read: 10 minutes, readout pge2 area (counts).

Read-outs that look alike come from different tables or passages of the source.

Consider `CC(C)CN(C)c1cncc(-c2ccc(S(C)(=O)=O)cc2)n1` [Compound 243], for which the “COX2 2 minutes pge2/pge2d4 area ratio Avg. LLE” value under setting [1] worked out at 3.642. Besides, the IC50 stood at 3.12 µM under setting [2] and 2.31 µM under setting [4]. Further, the “COX2 2 minutes pge2 area (counts) Avg. LLE” value (“COX2 2 minutes pge2 area” for short) under setting [3] is recorded as 3.739.
On to `CS(=O)(=O)c1ccc(-c2cncc(OCc3ccns3)n2)cc1` [Compound 153], for which the “COX2 2 minutes pge2/pge2d4 area ratio Avg. LLE” value under setting [1] was found to be 5.153. Further, the IC50 stood at 0.304 µM under setting [2] and 0.195 µM under setting [4]. The “COX2 2 minutes pge2 area” value under setting [3] is listed as 5.323.
For `Cc1ncc(OCc2cccs2)nc1-c1ccc(S(C)(=O)=O)cc1` [Compound 119], the “COX2 2 minutes pge2/pge2d4 area ratio Avg. LLE” value under setting [1] is listed as 4.695. The IC50 by setting is: under setting [2], 0.116 µM; under setting [4], 0.233 µM. Moreover, under setting [3], the “COX2 2 minutes pge2 area” value was 4.215.
For `CS(=O)(=O)c1ccc(-c2cnc3ccn(Cc4cccs4)c3c2)cc1` [Compound 111], the “COX2 2 minutes pge2/pge2d4 area ratio Avg. LLE” value under setting [1] amounted to 2.294. Further, the IC50 by setting is: under setting [2], 0.0991 µM; under setting [4], 0.113 µM. Also, the “COX2 2 minutes pge2 area” value under setting [3] stood at 2.242.
In the case of `CS(=O)(=O)c1ccc(-n2ncc3ccc(NCc4cccs4)nc32)cc1` [Compound 92], the IC50 is, setting by setting: under setting [2], 0.0686 µM; under setting [4], 0.0584 µM.
Take `Cc1ncc(NCc2cccs2)nc1-c1ccc(S(C)(=O)=O)cc1` [Compound 103]: the “COX2 2 minutes pge2/pge2d4 area ratio Avg. LLE” value under setting [1] stood at 4.751. Further, the IC50 by setting is: under setting [2], 0.0888 µM; under setting [4], 0.0733 µM. Under setting [3], the “COX2 2 minutes pge2 area” value was found to be 4.838.
On the same counts, the results for `C[S+]([O-])c1ccc(-c2cccc(OCc3cccs3)n2)cc1` (centres unmarked) [Compound 157] are 3.382, 0.35 µM, 0.428 µM and 3.281.
The matching figures for `COc1ncc(NCc2cccnc2)nc1-c1ccc(S(C)(=O)=O)cc1` [Compound 166]: 5.259, 0.427 µM, 0.38 µM and 5.249.
For the compound `CS(=O)(=O)c1ccc(-c2cncc(NCc3ccco3)c2)cc1` [Compound 161], the IC50 reads like this: under setting [2], 0.388 µM; under setting [4], 0.337 µM.
On the same counts, the results for `CS(=O)(=O)c1ccc(-n2ccc3ccc(/C(=N/O)c4cccs4)nc32)cc1` [Compound 195] are 0.885 µM and 0.969 µM.
For the compound `CS(=O)(=O)c1ccc(-c2cnc(C#N)c(NCc3cccs3)n2)cc1` [Compound 169], the IC50 reads like this: under setting [2], 0.442 µM; under setting [4], 0.294 µM; under setting [5], 0.0591 µM.
For `CS(=O)(=O)c1ccc(-c2ccc3ccn(-c4ccccc4)c3n2)cc1` [Compound 146], the “COX2 2 minutes pge2/pge2d4 area ratio Avg. LLE” value under setting [1] was 2.102. Moreover, the IC50 under setting [2] was 0.248 µM and the IC50 under setting [4] came to 0.201 µM. For the same compound, the “COX2 2 minutes pge2 area” value under setting [3] was 2.132.
Take `COc1ncc(NCc2ccno2)nc1-c1ccc(S(C)(=O)=O)cc1` [Compound 183]: under setting [1], the “COX2 2 minutes pge2/pge2d4 area ratio Avg. LLE” value is on record as 5.678. For the same compound, the IC50 amounted to 0.566 µM under setting [2] and 0.596 µM under setting [4]. Also, the “COX2 2 minutes pge2 area” value under setting [3] is on record as 5.655.
The matching figures for `CS(=O)(=O)c1ccc(-c2cncc(Oc3ccccc3)n2)cc1` [Compound 132]: 4.451, 0.158 µM, 0.975 µM and 3.942.
Regarding `CS(=O)(=O)c1ccc(-c2ccnc(OCc3cccs3)c2)cc1` [Compound 267], the “COX2 2 minutes pge2/pge2d4 area ratio Avg. LLE” value under setting [1] is 1.454. Also, the “COX2 2 minutes pge2 area” value under setting [3] is recorded as 1.6998. Besides, the IC50 under setting [4] worked out at 2.95 µM and the IC50 under setting [6] is 5.2 µM.
Regarding `CS(=O)(=O)c1ccc(-c2cccc(Oc3ccccc3)n2)cc1` [Compound 70], the IC50 reads like this: under setting [2], 0.0406 µM; under setting [4], 0.0465 µM.
For the compound `CS(=O)(=O)c1ccc(-c2cc(NCc3cccs3)cnn2)cc1` [Compound 220], the “COX2 2 minutes pge2/pge2d4 area ratio Avg. LLE” value under setting [1] was 3.784. Further, the IC50 is, setting by setting: under setting [2], 1.67 µM; under setting [4], 2.09 µM. For the same compound, under setting [3], the “COX2 2 minutes pge2 area” value was 3.69.
The matching figures for `COCc1ccc(-c2ccc(S(C)(=O)=O)cc2)nc1NCc1cccs1` [Compound 189]: 2.767, 0.656 µM, 0.839 µM and 2.661.
For `CN(C)c1cncc(-c2ccc(S(C)(=O)=O)cc2)n1` [Compound 278], under setting [1], the “COX2 2 minutes pge2/pge2d4 area ratio Avg. LLE” value is 4.524. Moreover, the “COX2 2 minutes pge2 area” value under setting [3] is recorded as 4.672. Also, the IC50 worked out at 3.7 µM under setting [4], 3.68 µM under setting [5] and 5.2 µM under setting [6]. Also, the “COX2 10 minutes pge2 area (counts) Avg. LLE” value under setting [7] stood at 4.674.
For the compound `CN1CC[C@H](CNc2cncc(-c3ccc(S(C)(=O)=O)cc3)n2)C1` [Compound 307], the IC50 under setting [6] came out at 5.2 µM.
Consider `CS(=O)(=O)c1ccc(-c2cncc(Oc3ccc(F)cc3)n2)cc1` [Compound 211], for which the “COX2 2 minutes pge2/pge2d4 area ratio Avg. LLE” value under setting [1] stood at 3.18. In addition, the IC50 amounted to 1.43 µM under setting [2], 1.23 µM under setting [4] and 1.64 µM under setting [5]. Further, the “COX2 2 minutes pge2 area” value under setting [3] was determined as 3.779. Also, under setting [7], the “COX2 10 minutes pge2 area (counts) Avg. LLE” value amounted to 3.305.
With `COCc1ccc(NCc2cccs2)nc1-c1ccc(S(C)(=O)=O)cc1` [Compound 100], the “COX2 2 minutes pge2/pge2d4 area ratio Avg. LLE” value under setting [1] was determined as 3.645. Also, the IC50 is, setting by setting: under setting [2], 0.0839 µM; under setting [4], 0.106 µM. The “COX2 2 minutes pge2 area” value under setting [3] worked out at 3.594.

(Values after patent US20220348590A1, “CYCLOOXYGENASE-2 INHIBITORS AND USES THEREOF” (The Board Institute, Inc., priority 2019, published 2022).)
